This is an account of results in US5871753A, “Regulated transcription of targeted genes and other biological events” (Board of Trustees of the Leland Stanford Junior University, priority 1995, dated 1999).

Structures are written as SMILES.

In test [1] the test system is chimeric receptor TAC/TAC/ZETA (TTZ). Kind of test: Secreted alkaline phosphatase reporter (NFAT-SX and other IL-2 enhancer elements) activation via cross-linking of chimeric receptor TAC/TAC/ZETA in TAg Jurkat cells. In kind it is cell-based, human. Conditions: 1 ng/ml FK506; TTZ-transfected TAg Jurkat cells. From the text: Induction of isolated IL-2 Enhancer-Binding Transcription Factors by cross-Linking the CD3.zeta. Chain of the T-Cell Receptor
The plasmid pSXNeo/IL2 (IL2-SX) (FIG. 1), placing the placental secreted alkaline phosphatase gene under the control of human IL-2 promoter (-325 to +47; MCB(86) 6, 3042), and variants (i.e. NFAT-SX, NFκB-SX, OAP/Oct1-SX, and AP-1-SX) under the control of the minimal IL-2 promoter (-325 to -294 and -72 to +47) plus synthetic oligomers, containing various promoter elements (i.e. NFAT, NKκKB, OAP/Oct-1, and AP1, respectively), were made by three piece ligations of 1) pPL/SEAP (Berger, et al., Gene (1988) 66,1) cut with SspI and HindIII; 2) pSV2/Neo (Southern and Berg, J. Mol. Appl. Genet. (1982) 1, 332) cut with NdeI, blunted with Klenow, then cut with PvuI; and 3) various promoter-containing plasmids (i.e. NFAT-CD8, κB-CD8, cx12lacZ-Oct-1, AP1-LUCIF3H, or cx15IL2) (described below) cut with PvuI and HindIII. NFAT-CD8 contains 3 copies of the NFAT-binding site (-286 to -257; Genes and Dev. (1990) 4, 1823) and cx12lacZ-Oct contains 4 copies of the OAP/Oct-1/(ARRE-1) binding site (MCB, (1988) 8, 1715) from the human IL-2 enhancer; κB-CD8 contains 3 copies of the NFκB binding site from the murine κ light chain (EMBO (1990) 9, 4425) and AP1-LUCIF3H contains 5 copies of the AP-1 site (5'-[…]-3') from the metallothionen promoter. […]

Test [2] relates to NF-AT-directed transcription. Conditions: Emmel et al. 1989; Flanagan et al. 1991; cited from earlier work.
In test [3] the test system is chimeric FKBP12/CD3.zeta. (1FK3) receptor. Kind of test: NFAT-inducible secreted alkaline phosphatase reporter activation through chimeric FKBP12/CD3.zeta. (1FK3) receptor. It is filed as cell-based, human. The note with it: 2 ng/ml FK506; FK1012A-stimulated 1FK3 transfected cells. On the procedure: Activity of the Dimeric FK506 Derivative, FK1012A, on the Chimeric FKBP12/CD3.zeta. (1FK3) Receptor
5 μg of the eukaryotic expression vector, pBJ5, (based on pCDL-SRαwith a polylinker inserted between the 16S splice site and the poly A site) containing the chimeric receptor (1FK3), was co-transfected with 4 μg of the NFAT-inducible secreted alkaline phosphatase reporter plasmid, NFAT-SX. As a control, 5 μg of pBJ5 was used, instead of 1FK3/pBJ5, in a parallel transfection. After 24 hours, aliquots of each transfection containing approximately 10^5 cells were incubated with log dilutions of the drug, FK1012A, as indicated. As a positive control and to control for transfection efficiency, ionomycin (1 μm) and PMA (25 ng/ml) were added to aliquots from each transfection. After an additional 14 hour incubation, the supernatants were assayed for alkaline phosphatase activity and these activities were expressed relative to that of the positive control samples.
To obtain the binding domain for FK506, plasmid rhFKBP (provided by S. Schreiber, Nature (1990) 346, 674) was used with P#6052 (SEQ ID NO. 33) and P#6053 (SEQ ID NO. 35) to obtain a 340 bp XhoI-SalI fragment containing human FKBP12. This fragment was inserted into pBluescript digested with XhoI and SalI to provide plasmid FK12/KS, which was the source for the FKBP12 binding domain. […]

Test [4] concerns myristoylated chimeric CD3.zeta./FKBP12 (MZF3E) receptor. Kind of test: NFAT-SX secreted alkaline phosphatase reporter activation through myristoylated chimeric CD3.zeta./FKBP12 (MZF3E) receptor. It is filed as cell-based, human. The note with it: 1 ng/ml FK506, FK1012B-stimulated. As to the method:
Activity of the Dimeric FK506 Derivative, FK1012B, on the Myristoylated Chimeric CD3.zeta./FKBP12 (MZF3E) Receptor
5 μg of the eukaryotic expression vector, pBJ5, containing a myristoylated chimeric receptor was co-transfected with 4 μg NFAT-SX. MZE, MZF1E, MZF2E and MZF3E contain 0, 1, 2, or 3 copies of FKBP12, respectively, downstream of a myristoylated CD3.zeta. cytoplasmic domain (see FIG. 2). As a control, 5 μg of pBJ5 was used in a parallel transfection. After 24 hours, aliquots of each transfection containing approximately 10^5 cells were incubated with log dilutions of the drug, FK1012B, as indicated. As a positive control and to control for transfection efficiency, ionomycln (1 μm) and PMA (25 ng/ml) were added to aliquots from each transfection. After an additional 12 hour incubation, the supernatants were assayed for alkaline phosphatase activity and these activities were expressed relative to that or the positive control samples. […] Compare FIGS. 7 and 8.
A myristoylation sequence from c-src was obtained from Pellman, et al., Nature 314, 374, and joined to a complementary sequence of CD3.zeta. to provide a primer which was complementary to a sequence 3' of the transmembrane domain, namely P#8908 (SEQ ID NO. 23). This primer has a SacII site adjacent to the 5' terminus and a XhoI sequence adjacent to the 3' terminus of the myristoylation sequence. […]

Turning to `C=CC[C@@H]1/C=C(\C)C[C@H](C)C[C@H](OC)[C@H]2O[C@@](O)(C(=O)C(=O)N3CCCC[C@H]3C(=O)O[C@H](/C(C)=C/[C@@H]3CC[C@@H](O)[C@H](OC)C3)[C@H](C)[C@@H](O)CC1=O)[C@H](C)C[C@@H]2OC` [FK506], the “activity due to NFAT after addition of FK506” value in test [1] is “dropped all activity due to NFAT to background levels”. In test [2], the “inhibition of NF-AT-directed transcription” value is “Inhibition of NF-AT-directed transcription”. For the same molecule, the “stimulations after addition of FK506” value is on record as “dropped all stimulations to background levels” in test [3] and “dropped all stimulations to near background levels” in test [4].
